Assay results published in patent US7183415B2, “Quinoline compound” (Takeda Pharmaceutical Company Limited, priority 2001, dated 2007).

| melting point | Structure (SMILES) |
| --- | --- |
| 198 to 200 °C | O=C(Nc1cc2ncc(CN3CCCC3)cc2cc1F)c1ccc(-c2ccc(F)cc2)cc1 [Example 50, 4′-fluoro-N-[6-fluoro-3-(1-pyrrolidinylmethyl)-7-quinolinyl][1,1′-biphenyl]-4-carboxamide] |
| 191 to 192 °C | COc1ccc(-c2ccc(C(=O)Nc3ccc4cc(CN5CCCCC5)cnc4c3C)c(F)c2)cc1 [Example 171, 3-fluoro-4′-methoxy-N-[8-methyl-3-(1-piperidinylmethyl)-7-quinolinyl][1,1′-biphenyl]-4-carboxamide] |
| 236 °C (dec.) | COc1cc2cc(CN3CCCCC3)cnc2cc1NC(=O)c1ccc(-c2ccc(Cl)cc2)cc1 [Example 24, 4′-chloro-N-[6-methoxy-3-(1-piperidinylmethyl)-7-quinolinyl][1,1′-biphenyl]-4-carboxamide] |
| 190 to 192 °C | COc1ccc(-c2ccc(C(=O)Nc3ccc4cc(CN5CCCCC5)cnc4c3C)cc2)cc1 [Example 165] |
| 180 °C | Cc1cc2cc(CN3CCCCCC3)cnc2cc1NC(=O)c1ccc(-c2ccc(Cl)s2)cc1 [Example 241, N-[3-(1-azepanylmethyl)-6-methyl-7-quinolinyl]-4-(5-chlorothien-2-yl)benzamide] |
| 224 to 227 °C | CCNC(=O)CC1CCN(Cc2cnc3cc(NC(=O)c4ccc(-c5ccc(F)cc5)cc4)ccc3c2)CC1 [Example 44, N-[3-({4-[2-(ethylamino)-2-oxoethyl]-1-piperidinyl}methyl)-7-quinolinyl]-4′-fluoro[1,1′-biphenyl]-4-carboxamide] |
| 146 to 147 °C | CCC(=O)Oc1ccc(C(=O)Nc2ccc3cc(CN4CCCC4)cnc3c2C)cc1 [Example 330, 4-({[8-methyl-3-(1-pyrrolidinylmethyl)-7-quinolinyl]amino}carbonyl)phenyl propionate] |
| 161 to 162 °C | Cc1c(NC(=O)c2ccc(-c3ccc(F)cc3)c(F)c2)ccc2cc(CN3CCCCC3)cnc12 (hydrate or solvate) [Example 176, 2,4′-difluoro-N-[8-methyl-3-(1-piperidinylmethyl)-7-quinolinyl][1,1′-biphenyl]-4-carboxamide] |
| 249 °C | Cc1cc2cc(CN3CCC(CC(N)=O)CC3)cnc2cc1NC(=O)c1ccc(-c2ccc(F)cc2)cc1 [Example 270, N-(3-{[4-(2-amino-2-oxoethyl)-1-piperidinyl]methyl}-6-methyl-7-quinolinyl)-4′-fluoro[1,1′-biphenyl]-4-carboxamide] |
| 240 °C | CCNC(=O)CCCC1CCN(Cc2cnc3cc(NC(=O)c4ccc(-c5ccc(F)cc5)cc4)c(C)cc3c2)CC1 [Example 261, N-[3-({4-[4-(ethylamino)-4-oxobutyl]-1-piperidinyl}methyl)-6-methyl-7-quinolinyl]-4′-fluoro[1,1′-biphenyl]-4-carboxamide] |
| 180 to 183 °C | Cc1cc2cc(CN3CCCC3)cnc2cc1NC(=O)c1ccc(-c2ccccc2)cc1F [Example 226, 3-fluoro-N-[6-methyl-3-(1-pyrrolidinylmethyl)-7-quinolinyl][1,1′-biphenyl]-4-carboxamide] |
| 187 °C | Cc1cc2cc(CN3CCCC3)cnc2cc1NC(=O)c1ccc(-c2ccsc2)cc1 [Example 223, N-[6-methyl-3-(1-pyrrolidinylmethyl)-7-quinolinyl]-4-thien-3-ylbenzamide] |
| 241 to 243 °C | COc1ccc(C2CCN(C(=O)Nc3ccc4cc(CN5CCCC5)cnc4c3)CC2)cc1 [Example 13, 4-(4-methoxyphenyl)-N-[3-(1-pyrrolidinylmethyl)-7-quinolinyl]-1-piperidine carboxamide] |
| 218 to 220 °C | O=C(Nc1cc2ncc(CN3CCCC3)cc2cc1F)c1ccc(-c2ccc(Cl)cc2)cc1 [Example 51, 4′-chloro-N-[6-fluoro-3-(1-pyrrolidinylmethyl)-7-quinolinyl][1,1′-biphenyl]-4-carboxamide] |
| 184 °C | COc1ccc(-c2ccc(C(=O)Nc3cc4ncc(CN5CCCC5)cc4cc3Cl)cc2)cc1 [Example 67, N-[6-chloro-3-(1-pyrrolidinylmethyl)-7-quinolinyl]-4′-methoxy-[1,1′-biphenyl]-4-carboxamide] |
| 168 °C | COc1ccc(-c2ccc(C(=O)Nc3cc4ncc(CN5CCCCCC5)cc4cc3C)c(F)c2)cc1 [Example 245, N-[3-(1-azepanylmethyl)-6-methyl-7-quinolinyl]-3-fluoro-4′-methoxy[1,1′-biphenyl]-4-carboxamide] |
| 210 to 213 °C | COc1ccc(-c2ccc(C(=O)Nc3ccc4cc(CN5CCCC5)cnc4c3C)cc2)cc1 [Example 18, 4′-methoxy-N-[8-methyl-3-(1-pyrrolidinylmethyl)-7-quinolinyl][1,1′-biphenyl]-4-carboxamide] |
| 166 to 168 °C | Cc1c(NC(=O)c2ccc(-c3ccccc3)cc2F)ccc2cc(CN3CCCC3)cnc12 [Example 149, 3-fluoro-N-[8-methyl-3-(1-pyrrolidinylmethyl)-7-quinolinyl][1,1′-biphenyl]-4-carboxamide] |

| melting point | Structure (SMILES) |
| --- | --- |
| 178 to 179 °C | CCc1ccc(-c2ccc(C(=O)Nc3ccc4cc(CN5CCCC5)cnc4c3C)c(F)c2)cc1 [Example 140, 4′-ethyl-3-fluoro-N-[8-methyl-3-(1-pyrrolidinylmethyl)-7-quinolinyl][1,1′-biphenyl]-4-carboxamide] |
| 261 to 265 °C | NC(=O)C1CCN(Cc2cnc3cc(NC(=O)c4ccc(-c5ccc(F)cc5)cc4)ccc3c2)CC1 [Example 42, 1-[(7-{[(4′-fluoro[1,1′-biphenyl]-4-yl)carbonyl]amino}-3-quinolinyl)methyl]-4-piperidine carboxamide] |
| 174 to 176 °C | COc1ccc(-c2ccc(C(=O)Nc3cc4ncc(CN5CCCC5)cc4cc3F)c(F)c2)cc1 [Example 59, 3-fluoro-N-[6-fluoro-3-(1-pyrrolidinylmethyl)-7-quinolinyl]-4′-methoxy[1,1′-biphenyl]-4-carboxamide] |
| 165 to 167 °C | COc1ccc(-c2ccc(C(=O)Nc3cc4ncc(CN5CCCC5)cc4cc3C)cc2F)cc1 [Example 236, 2-fluoro-4′-methoxy-N-[6-methyl-3-(1-pyrrolidinylmethyl)-7-quinolinyl][1,1′-biphenyl]-4-carboxamide] |
| 202 to 204 °C | Cc1c(NC(=O)c2ccc(-c3ccc(F)cc3)cc2)ccc2cc(CN3CCC(CCCC(=O)N(C)C)CC3)cnc12 [Example 208, N-[3-({4-[4-(dimethylamino)-4-oxobutyl]-1-piperidinyl}methyl)-8-methyl-7-quinolinyl]-4′-fluoro[1,1′-biphenyl]-4-carboxamide] |
| 200 to 201 °C | Cc1c(NC(=O)c2ccc(-c3ccc(F)cc3)cc2)ccc2cc(CN3CCC(CC(=O)N(C)C)CC3)cnc12 [Example 202, N-[3-({4-[2-(dimethylamino)-2-oxoethyl]-1-piperidinyl}methyl)-8-methyl-7-quinolinyl]-4′-fluoro[1,1′-biphenyl]-4-carboxamide] |
| 176 to 178 °C | Cc1c(NC(=O)c2ccc(-c3ccc(F)cc3)c(F)c2)ccc2cc(CN3CCCC3)cnc12 [Example 153, 2,4′-difluoro-N-[8-methyl-3-(1-pyrrolidinylmethyl)-7-quinolinyl][1,1′-biphenyl]-4-carboxamide] |
| 194 °C | Cc1cc2cc(CN3CCC(CCCC(=O)N(C)C)CC3)cnc2cc1NC(=O)c1ccc(-c2ccc(F)cc2)cc1 [Example 262, N-[3-({4-[4-(dimethylamino)-4-oxobutyl]-1-piperidinyl}methyl)-6-methyl-7-quinolinyl]-4′-fluoro[1,1′-biphenyl]-4-carboxamide] |
| 210 to 212 °C | O=C(Nc1ccc2cc(CN3CCCC3)cnc2c1)c1ccc(-c2ccc(F)cc2)cc1 [Example 4, 4′-fluoro-N-[3-(1-pyrrolidinylmethyl)-7-quinolinyl][1,1′-biphenyl]-4-carboxamide] |
| 228 °C | Cc1cc2cc(CN3CCC(CCCC(N)=O)CC3)cnc2cc1NC(=O)c1ccc(-c2ccc(F)cc2)cc1 [Example 264, N-(3-{[4-(4-amino-4-oxobutyl)-1-piperidinyl]methyl}-6-methyl-7-quinolinyl)-4′-fluoro[1,1′-biphenyl]-4-carboxamide] |
| 184 to 187 °C | O=C(Nc1cc2ncc(CN3CCCC3)cc2cc1F)c1ccc(-c2ccc(OC(F)(F)F)cc2)cc1 [Example 56, N-[6-fluoro-3-(1-pyrrolidinylmethyl)-7-quinolinyl]-4′-(trifluoromethoxy)[1,1′-biphenyl]-4-carboxamide] |
| 206 to 208 °C | Cc1ccc(-c2ccc(C(=O)Nc3ccc4cc(CN5CCCC5)cnc4c3)cc2)cc1 [Example 5, 4′-methyl-N-[3-(1-pyrrolidinylmethyl)-7-quinolinyl][1,1′-biphenyl]-4-carboxamide] |
| 191 to 195 °C | O=C(Nc1ccc2cc(CN3CCC(CO)CC3)cnc2c1)c1ccc(-c2ccc(F)cc2)cc1 [Example 45, 4′-fluoro-N-(3-{[4-(hydroxymethyl)-1-piperidinyl]methyl}-7-quinolinyl)[1,1′-biphenyl]-4-carboxamide] |
| 206 to 208 °C | CSc1ccc(-c2ccc(C(=O)Nc3ccc4cc(CN5CCCC5)cnc4c3C)cc2)cc1 (hydrate or solvate) [Example 110, N-[8-methyl-3-(1-pyrrolidinylmethyl)-7-quinolinyl]-4′-(methylsulfanyl)[1,1′-biphenyl]-4-carboxamide] |
| 173 °C | Cc1ccc(-c2ccc(C(=O)Nc3ccc4cc(CN5CCCC5)cnc4c3)c(F)c2)cc1 [Example 277, 3-fluoro-4′-methyl-N-[3-(1-pyrrolidinylmethyl)-7-quinolinyl][1,1′-biphenyl]-4-carboxamide] |
| 200 to 202 °C | Cc1c(NC(=O)c2ccc(-c3ccc(OC(F)(F)F)cc3)cc2)ccc2cc(CN3CCCC3)cnc12 [Example 103, N-[8-methyl-3-(1-pyrrolidinylmethyl)-7-quinolinyl]-4′-(trifluoromethoxy)[1,1′-biphenyl]-4-carboxamide] |
| 229 to 231 °C | CNC(=O)CC1CCN(Cc2cnc3c(C)c(NC(=O)c4ccc(-c5ccc(F)cc5)cc4)ccc3c2)CC1 [Example 201, 4′-fluoro-N-[8-methyl-3-({4-[2-(methylamino)-2-oxoethyl]-1-piperidinyl}methyl)-7-quinolinyl][1,1′-biphenyl]-4-carboxamide] |
